As usually defined, the IC50 is the concentration that gives 50% inhibition. The term EC50 denotes the concentration that produces a half-maximal response. As usually defined, the fraction unbound is the share of the substance not bound to proteins or other matrix. High values mean weak binding, low ones extensive binding.

Two compounds from patent US20250186408A1, “TREATMENT OF PHARMACORESISTANT EPILEPSY” (Katholieke Universiteit Leuven, priority 2021, published 2025) can be followed below.

For data set [1], the target named is T1, INSR (Homo sapiens, UniProt P06213).
T1 construct: purchased Eurofins DiscoverX Corporation 87-1003DR; host or cells: E. coli BL21-derived host (T7 phage) or HEK-293
As to the kind of experiment: Binding (KINOMEscan) INSR Inhibitor. The note with it: for IC50: read-out: RC50, result type IC50; for Emax: read-out: Max response. As for the experimental part: For most assays, kinase-tagged T7 phage strains were grown in parallel in 24-well blocks in an E. coli host derived from the BL21 strain. E. coli were grown to log-phase and infected with T7 phage from a frozen stock (multiplicity of infection=0.4) and incubated with shaking at 32° C. until lysis (90-150 min). The lysates were centrifuged (6,000×g) and filtered (0.2 μm) to remove cell debris. The remaining kinases were produced in HEK-293 cells and subsequently tagged with DNA for qPCR detection. Streptavidin-coated magnetic beads were treated with biotinylated small molecule ligands for 30 min at RT to generate affinity resins for kinase assays. The liganded beads were blocked with excess biotin and washed with blocking buffer (SeaBlock (Pierce), 1% BSA, 0.05% Tween 20, 1 mM DTT) to remove unbound ligand and to reduce non-specific phage binding. […] All reactions were performed in polypropylene 384-well plates in a final volume of 0.02 mL. […] The beads were then re-suspended in elution buffer (1×PBS, 0.05% Tween 20, 0.5 μM non-biotinylated affinity ligand) and incubated at RT with shaking for 30 min. The kinase concentration in the eluates was measured by qPCR.
The kinase concentration in the eluates was measured by qPCR. qPCR reactions were assembled by adding 2.5 μL of kinase eluate to 7.5 μL of qPCR master mix containing 0.15 μM amplicon primers and 0.15 μM amplicon probe. The qPCR protocol consisted of a 10 min hot start at 95° C., followed by 35 cycles of 95° C. for 15 sec, 60° C. for 1 min.
Binding constants (Kds) were calculated with a standard dose-response curve using the Hill equation: […]

For data set [2], the target named is T2, EDNRA (Homo sapiens, UniProt P25101).
T2 sequence (P25101 21-427): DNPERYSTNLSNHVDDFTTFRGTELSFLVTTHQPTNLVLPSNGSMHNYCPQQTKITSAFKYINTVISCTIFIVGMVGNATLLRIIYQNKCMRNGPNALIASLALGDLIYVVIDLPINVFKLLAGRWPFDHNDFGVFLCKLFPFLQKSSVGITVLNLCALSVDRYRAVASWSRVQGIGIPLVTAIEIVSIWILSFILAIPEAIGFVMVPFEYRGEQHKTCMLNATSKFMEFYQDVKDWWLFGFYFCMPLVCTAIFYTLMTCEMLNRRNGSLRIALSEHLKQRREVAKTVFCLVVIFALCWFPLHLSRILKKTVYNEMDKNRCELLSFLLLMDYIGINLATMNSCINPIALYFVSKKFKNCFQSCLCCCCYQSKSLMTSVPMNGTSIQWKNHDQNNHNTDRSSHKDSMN
As to the kind of experiment: Calcium Flux EDNRA Agonist. Type of data set: cell-based. To be noted: for EC50: read-out: RC50, result type EC50; for Emax: read-out: Max response. As for the experimental part: (§1) (≤0.2% DMSO concentration). Assays were performed in 1× dye loading buffer consisting of 1× Dye (DiscoverX, Calcium No Wash^PLUS kit, Catalog No. 90-0091), 1× Additive A and 2.5 mM Probenecid in HBSS/20 mM HEPES. Probenecid was prepared fresh. Prior to testing, media was aspirated from cells and replaced with 25 μL dye loading buffer. Cells were incubated for 45 min at 37° C. and then 20 min at RT. For agonist determination, 25 μL of 2× compound in HBSS/20 mM HEPES was added using a FLIPR Tetra (MDS). […] 25 μL of 2× sample was added and cells were incubated for 30 min at RT in the dark to equilibrate plate temperature. After incubation, antagonist determination was initiated by addition of 25 μL of 1× compound with 3×EC80 agonist using FLIPR. For both agonist and antagonist formats, activity was measure on a FLIPR Tetra (MDS). Calcium mobilization was monitored for 2 min with a 5 sec baseline read.
(§2) FLIPR read—Area under the curve, was calculated for the entire 2 min read.
(Calcium assays in cells follow changes in intracellular calcium, usually with a dye or a luminescent sensor.)

A short description of data set [3]: Plasma protein binding. Format: in vitro ADME. To be noted: pH 7.4, human plasma. The source says: In vitro ADME profiling of compounds was done by Eurofins Panlabs Inc (St Charles, MO, USA) using their ADME-Tox service (Cat Ref P375, Tier 1 ADME Panel). […] (28). The atom-based log P calculation method, called OsirisP, uses as an increment system and adds contributions of every atom based on its atom type. The prediction engine distinguishes a total of 368 atom types and was optimized using a training set of more than 5000 molecules with experimentally determined log P values. The free prediction engine has proven to outperform many alternative calculation methods (29).
Human plasma, used as the protein containing matrix, was spiked with the test compound at 10 μM (final solvent concentration of 1% DMSO). The assay was performed in a 96-well format in a dialysis block (Teflon) with the dialysate compartment containing PBS (pH 7.4) and the sample side containing an equal volume of the spiked protein matrix. The plate was incubated at 37° C. for 4 h. After incubation, samples were taken from both compartments, diluted with the phosphate buffer, followed by the addition of acetonitrile and centrifugation. The supernatants were then used for HPLC-MS/MS analysis. Acebutolol, quinidine and warfarin were tested in each assay. The percentage bound to proteins and the recovery were calculated as follows: […]

The target of data set [4] is HTR2B (Homo sapiens, UniProt P41595). As to the kind of experiment: Calcium Flux HTR2B Antagonist. The note with it: for Emax: read-out: Max response.
Protocol: In vitro pharmacological profiling of compounds was done against 78 functional assays for 47 common off-targets (30) by Eurofins DiscoverX Corporation (Fremont, CA, USA) using their SAFETYscan E/IC50 ELECT service (Cat Ref 87-1003DR, Safety47 Panel Dose Response). […] Compounds were tested in a range of 10 concentrations, following a 3-fold serial dilution, starting from 10 μM. The assays were performed utilizing the PathHunter enzyme fragment complementation (EFC) technology, FLIPR®-based cellular screening assays, and KINOMEscan kinase binding assays.
Prior to testing, cells (10,000 cells/well) were expanded from freezer stocks and seeded into a total volume of 50 μL into black walled, clear-bottom, Poly-D-lysine coated 384-well microplates and incubated at 37° C. […] Assays were performed in 1× dye loading buffer consisting of 1× Dye (DiscoverX, Calcium No Wash^PLUS kit, Catalog No. 90-0091), 1× Additive A and 2.5 mM Probenecid in HBSS/20 mM HEPES. Probenecid was prepared fresh. Prior to testing, media was aspirated from cells and replaced with 25 μL dye loading buffer. Cells were incubated for 45 min at 37° C. and then 20 min at RT. For agonist determination, 25 μL of 2× compound in HBSS/20 mM HEPES was added using a FLIPR Tetra (MDS). For antagonist determination, cells were pre-incubated with sample followed by agonist challenge at the EC80 concentration. 25 μL of 2× sample was added and cells were incubated for 30 min at RT in the dark to equilibrate plate temperature. After incubation, antagonist determination was initiated by addition of 25 μL of 1× compound with 3×EC80 agonist using FLIPR. For both agonist and antagonist formats, activity was measure on a FLIPR Tetra (MDS). Calcium mobilization was monitored for 2 min with a 5 sec baseline read.
FLIPR read—Area under the curve, was calculated for the entire 2 min read. Compound activity was analysed using CBIS data analysis suite (ChemInnovation, CA).
Data set [5] has as its system 47 common off-targets. In words: Safety47 panel in vitro pharmacological profiling (overall). To be noted: for potential off-targets (number): 78 functional assays, 47 off-targets, up to 10 μM.
Protocol: The following assays were performed: (1) GPCR cAMP modulation, (2) calcium mobilization, (3) nuclear hormone receptor assays, (4) KINOMEscan binding assays, (5) ion channel assays, (6) transporter assays and (7) enzymatic assays. Compounds were tested in a range of 10 concentrations, following a 3-fold serial dilution, starting from 10 μM. The assays were performed utilizing the PathHunter enzyme fragment complementation (EFC) technology, FLIPR®-based cellular screening assays, and KINOMEscan kinase binding assays.
Data set [6] has as its target ADORA2A (Homo sapiens, UniProt P29274). In words: Calcium Flux ADORA2A Agonist. Type of data set: cell-based. The note with it: for EC50: read-out: RC50, result type EC50; for Emax: read-out: Max response. As for the experimental part:
as §1, §2

Data set [7] has as its target NAV1.5 (Homo sapiens, UniProt Q14524). As to the kind of experiment: Ion Channel NAV1.5 Blocker. Type of data set: cell-based. The note with it: for Emax at 30 min: Ion Channel NAV1.5 Blocker, read-out: Max response.

SMILES strings stand for the structures. Like-named read-outs stand apart in the source and are kept apart here. Bounds are passed on as bounds.

NAV1.5, sequence (Q14524 whole entry): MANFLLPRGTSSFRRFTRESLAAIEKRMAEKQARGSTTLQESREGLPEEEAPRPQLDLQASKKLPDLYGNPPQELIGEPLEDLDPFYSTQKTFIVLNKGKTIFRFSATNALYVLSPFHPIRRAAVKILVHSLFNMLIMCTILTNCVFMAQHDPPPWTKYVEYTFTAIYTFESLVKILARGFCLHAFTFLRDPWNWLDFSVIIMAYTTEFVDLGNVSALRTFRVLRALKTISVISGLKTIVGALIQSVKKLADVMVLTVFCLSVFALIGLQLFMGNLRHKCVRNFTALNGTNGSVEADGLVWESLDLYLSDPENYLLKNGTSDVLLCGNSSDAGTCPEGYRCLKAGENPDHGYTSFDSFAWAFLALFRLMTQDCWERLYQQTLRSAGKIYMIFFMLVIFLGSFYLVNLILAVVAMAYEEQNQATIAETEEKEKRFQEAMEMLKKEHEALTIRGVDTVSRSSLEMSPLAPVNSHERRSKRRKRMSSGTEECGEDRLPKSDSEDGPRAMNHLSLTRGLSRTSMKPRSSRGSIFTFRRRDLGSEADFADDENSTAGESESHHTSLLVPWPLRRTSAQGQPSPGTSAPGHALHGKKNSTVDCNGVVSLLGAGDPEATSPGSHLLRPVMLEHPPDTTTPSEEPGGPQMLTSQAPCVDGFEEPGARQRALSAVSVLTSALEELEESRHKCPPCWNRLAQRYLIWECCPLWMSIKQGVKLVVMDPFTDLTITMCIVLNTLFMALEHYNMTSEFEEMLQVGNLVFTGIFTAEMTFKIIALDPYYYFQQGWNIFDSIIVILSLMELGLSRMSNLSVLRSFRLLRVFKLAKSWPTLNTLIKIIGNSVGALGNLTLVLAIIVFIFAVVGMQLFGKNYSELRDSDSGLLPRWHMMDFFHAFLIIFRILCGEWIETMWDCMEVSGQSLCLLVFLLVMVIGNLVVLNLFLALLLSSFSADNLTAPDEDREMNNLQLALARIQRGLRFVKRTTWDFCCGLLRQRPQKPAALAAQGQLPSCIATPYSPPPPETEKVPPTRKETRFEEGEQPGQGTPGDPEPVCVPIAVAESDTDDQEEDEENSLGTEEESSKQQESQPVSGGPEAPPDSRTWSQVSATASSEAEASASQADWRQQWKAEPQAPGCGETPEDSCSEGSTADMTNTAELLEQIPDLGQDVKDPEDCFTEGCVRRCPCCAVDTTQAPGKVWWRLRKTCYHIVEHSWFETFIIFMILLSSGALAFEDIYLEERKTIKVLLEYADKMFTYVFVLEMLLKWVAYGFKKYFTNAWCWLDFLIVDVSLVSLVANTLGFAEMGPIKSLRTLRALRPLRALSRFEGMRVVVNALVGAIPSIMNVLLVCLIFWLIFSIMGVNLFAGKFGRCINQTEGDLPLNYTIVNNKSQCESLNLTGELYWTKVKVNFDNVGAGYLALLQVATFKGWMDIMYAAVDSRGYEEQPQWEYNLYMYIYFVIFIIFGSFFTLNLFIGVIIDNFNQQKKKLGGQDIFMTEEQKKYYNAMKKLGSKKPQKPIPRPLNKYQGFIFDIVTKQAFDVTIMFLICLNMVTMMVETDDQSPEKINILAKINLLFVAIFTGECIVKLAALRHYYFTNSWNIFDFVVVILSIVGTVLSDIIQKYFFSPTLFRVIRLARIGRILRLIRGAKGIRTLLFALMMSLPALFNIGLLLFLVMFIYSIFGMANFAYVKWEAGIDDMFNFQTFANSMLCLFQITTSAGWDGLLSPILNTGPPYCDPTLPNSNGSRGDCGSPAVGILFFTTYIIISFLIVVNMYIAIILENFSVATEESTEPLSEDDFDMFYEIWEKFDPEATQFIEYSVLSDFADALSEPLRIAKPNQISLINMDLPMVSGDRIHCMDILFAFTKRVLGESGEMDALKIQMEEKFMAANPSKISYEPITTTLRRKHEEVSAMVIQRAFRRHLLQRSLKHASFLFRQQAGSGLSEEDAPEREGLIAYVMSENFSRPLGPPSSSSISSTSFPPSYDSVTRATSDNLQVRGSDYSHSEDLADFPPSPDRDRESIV
ADORA2A, sequence (P29274 whole entry): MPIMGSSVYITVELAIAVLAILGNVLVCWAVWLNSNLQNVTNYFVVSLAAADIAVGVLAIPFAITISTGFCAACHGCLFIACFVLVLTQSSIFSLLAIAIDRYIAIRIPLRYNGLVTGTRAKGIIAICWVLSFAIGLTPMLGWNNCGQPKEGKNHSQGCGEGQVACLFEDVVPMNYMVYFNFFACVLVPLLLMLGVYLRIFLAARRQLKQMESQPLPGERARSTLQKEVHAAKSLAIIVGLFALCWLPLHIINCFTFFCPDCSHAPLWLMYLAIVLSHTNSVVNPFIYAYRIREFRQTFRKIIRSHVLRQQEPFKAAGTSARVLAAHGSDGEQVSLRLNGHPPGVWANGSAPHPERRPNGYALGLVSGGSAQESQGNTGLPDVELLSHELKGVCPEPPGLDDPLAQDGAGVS
HTR2B, sequence (P41595 whole entry): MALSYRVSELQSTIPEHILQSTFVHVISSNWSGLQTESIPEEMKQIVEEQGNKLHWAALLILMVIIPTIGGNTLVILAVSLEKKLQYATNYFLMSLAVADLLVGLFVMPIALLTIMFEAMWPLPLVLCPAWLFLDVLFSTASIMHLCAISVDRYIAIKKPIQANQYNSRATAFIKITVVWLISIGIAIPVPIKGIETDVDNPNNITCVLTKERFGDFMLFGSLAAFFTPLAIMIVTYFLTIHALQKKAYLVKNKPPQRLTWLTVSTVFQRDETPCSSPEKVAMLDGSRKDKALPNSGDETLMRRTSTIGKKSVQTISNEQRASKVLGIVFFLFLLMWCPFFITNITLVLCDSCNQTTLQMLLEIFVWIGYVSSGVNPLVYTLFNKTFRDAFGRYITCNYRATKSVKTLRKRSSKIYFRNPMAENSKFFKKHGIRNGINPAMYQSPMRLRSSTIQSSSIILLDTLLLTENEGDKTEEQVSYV
T1 sequence (P06213 28-1382): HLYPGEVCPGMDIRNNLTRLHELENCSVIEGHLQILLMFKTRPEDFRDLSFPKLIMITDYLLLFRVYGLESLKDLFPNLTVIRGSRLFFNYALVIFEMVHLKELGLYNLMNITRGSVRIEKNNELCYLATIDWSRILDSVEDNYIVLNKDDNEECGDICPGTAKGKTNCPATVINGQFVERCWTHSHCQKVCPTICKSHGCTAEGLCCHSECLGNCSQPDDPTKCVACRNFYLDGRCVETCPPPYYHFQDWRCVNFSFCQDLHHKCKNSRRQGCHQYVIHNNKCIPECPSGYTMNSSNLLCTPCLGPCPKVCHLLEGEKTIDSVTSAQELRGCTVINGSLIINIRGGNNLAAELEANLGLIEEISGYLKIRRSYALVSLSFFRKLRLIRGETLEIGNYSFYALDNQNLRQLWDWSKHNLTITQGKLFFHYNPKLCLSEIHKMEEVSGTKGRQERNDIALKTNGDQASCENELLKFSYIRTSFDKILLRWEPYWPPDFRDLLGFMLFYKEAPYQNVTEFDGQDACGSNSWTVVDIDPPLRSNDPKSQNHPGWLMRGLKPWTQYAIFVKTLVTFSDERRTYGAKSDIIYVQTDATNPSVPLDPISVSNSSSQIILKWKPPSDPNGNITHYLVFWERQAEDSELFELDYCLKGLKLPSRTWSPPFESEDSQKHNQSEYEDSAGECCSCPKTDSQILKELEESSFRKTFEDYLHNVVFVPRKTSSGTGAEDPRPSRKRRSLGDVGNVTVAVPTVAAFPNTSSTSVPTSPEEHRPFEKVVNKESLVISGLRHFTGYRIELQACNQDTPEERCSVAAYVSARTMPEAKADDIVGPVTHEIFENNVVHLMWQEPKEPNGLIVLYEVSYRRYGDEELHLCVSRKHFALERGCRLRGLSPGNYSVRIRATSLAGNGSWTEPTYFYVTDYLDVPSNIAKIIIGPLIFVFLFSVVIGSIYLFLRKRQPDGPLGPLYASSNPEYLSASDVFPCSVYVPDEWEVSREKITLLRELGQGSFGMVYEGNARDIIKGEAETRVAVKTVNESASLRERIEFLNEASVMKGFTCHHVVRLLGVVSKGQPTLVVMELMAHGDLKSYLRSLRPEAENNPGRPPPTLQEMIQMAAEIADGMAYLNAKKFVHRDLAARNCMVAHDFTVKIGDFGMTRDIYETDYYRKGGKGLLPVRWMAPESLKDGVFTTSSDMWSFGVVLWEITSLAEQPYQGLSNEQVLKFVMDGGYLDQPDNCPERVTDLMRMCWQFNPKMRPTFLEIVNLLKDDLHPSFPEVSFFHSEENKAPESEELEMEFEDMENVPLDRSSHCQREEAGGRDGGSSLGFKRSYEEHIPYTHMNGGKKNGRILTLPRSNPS

`CC(C)(C)c1ccc(C#CC(O)c2ccccc2)cc1` (racemic) [Compound 3.3, rac-3-(4-(tert-butyl)phenyl)-1-phenylprop-2-yn-1-ol]: the IC50 in data set [1] (Binding INSR Inhibitor) is above 10 µM; in data set [4], above 10 µM; in data set [5] (read-out: IC50 values at the potential off-targets, CHRM2, DRD2S, HTR1B, nAChR a4/b2), 4 to 8 µM; in data set [7] it was above 10 µM. Besides, the Emax was determined as 10.3% in data set [1], 0% in data set [2], 0% in data set [4] and 1.8% in data set [6]. Moreover, the EC50 in data set [2] (Calcium Flux EDNRA Agonist) and in data set [6] (Calcium Flux ADORA2A Agonist) was above 10 µM each time. This compound also gave a free fraction (fraction unbound) at 4 h, 10 μM in data set [3] of 0.002. Besides, the “potential off-targets (number)” value in data set [5] was found to be 4. Further, the Emax at 30 min in data set [7] is 59.9%.
For `Clc1cccc(C#Cc2n[nH]c3ncccc23)c1` [Compound 10.1, 3-((3-chlorophenyl)ethynyl)-1H-pyrazolo[3,4-b]pyridine], the Emax in data set [1] (Binding INSR Inhibitor) was 0%; in data set [2] (Calcium Flux EDNRA Agonist) it was 1.8%; in data set [4], 8.8%; in data set [6] (Calcium Flux ADORA2A Agonist) it was 3%. For the same compound, the IC50 in data set [1] (Binding INSR Inhibitor), in data set [4] and in data set [7] was above 10 µM throughout. Besides, the EC50 in data set [2] (Calcium Flux EDNRA Agonist) and in data set [6] (Calcium Flux ADORA2A Agonist) was above 10 µM each time. In data set [3], this compound showed a fraction unbound at 4 h, 10 μM of 0.0035. In addition, in data set [5], the “potential off-targets (number)” value is on record as “none”. For the same compound, the Emax at 30 min in data set [7] was found to be 21.5%.
